Test results: US7759369B2, “Pyridine compounds for the treatment of prostaglandin mediated diseases” (Glaxo Group Limited, priority 2004, dated 2010)
Structures can show the parent of a compound that is named as a salt.

Legend:
Assay type in all cases: cell-based
EP1 receptors = biological target: T1, EP1 receptors (Homo sapiens, UniProt P34995); assay: human EP1 calcium mobilisation assay (CHO-K1 cells, PGE2, FLIPR); set-up: expressed in transfected cells; host or cells: CHO-K1; details: free bases or sodium salts; averages of a number of experiments; read-out: functional pKi value, human EP1 calcium mobilisation assay (converted)
T1 sequence (P34995 1-402): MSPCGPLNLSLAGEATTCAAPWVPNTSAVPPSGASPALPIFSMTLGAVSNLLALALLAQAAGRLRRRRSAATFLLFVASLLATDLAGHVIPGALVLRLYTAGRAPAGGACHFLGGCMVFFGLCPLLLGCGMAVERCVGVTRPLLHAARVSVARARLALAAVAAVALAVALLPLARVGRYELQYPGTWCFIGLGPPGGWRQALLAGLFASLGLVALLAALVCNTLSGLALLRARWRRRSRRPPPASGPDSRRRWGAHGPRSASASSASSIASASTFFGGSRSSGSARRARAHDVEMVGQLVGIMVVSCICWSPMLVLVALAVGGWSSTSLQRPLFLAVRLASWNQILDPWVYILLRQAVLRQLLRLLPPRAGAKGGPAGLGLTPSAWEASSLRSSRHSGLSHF
Protocol: (§1) Briefly, the antagonist properties of compounds are assessed by their ability to inhibit the mobilisation of intracellular calcium ([Ca^2+]i) in response to activation of EP1 or EP3 receptors by the natural agonist hormone prostaglandin E2 (PGE2). Increasing concentrations of antagonist reduce the amount of calcium that a given concentration of PGE2 can mobilise. The net effect is to displace the PGE2 concentration-effect curve to higher concentrations of PGE2. The amount of calcium produced is assessed using a calcium-sensitive fluorescent dye such as Fluo-4, AM and a suitable instrument such as a Fluorimetric Imaging Plate Reader (FLIPR). Increasing amounts of [Ca^2+]i produced by receptor activation increase the amount of fluorescence produced by the dye and give rise to an increasing signal. The signal may be detected using the FLIPR instrument and the data generated may be analysed with suitable curve-fitting software.
(§2) The human EP1 or EP3 calcium mobilisation assay (hereafter referred to as ‘the calcium assay’) utilises Chinese hamster ovary-K1 (CHO-K1) cells into which a stable (pCIN; BioTechniques 20 (1996): 102-110) vector containing either EP1 or EP3 cDNA has previously been transfected. Cells are cultured in suitable flasks containing culture medium such as DMEM:F-12 supplemented with 10% v/v foetal calf serum, 2 mM L-glutamine, 0.25 mg/ml geneticin, 100 μM flurbiprofen and 10 µg/ml puromycin.
(§3) For assay, cells are harvested using a proprietary reagent that dislodges cells such as Versene. Cells are re-suspended in a suitable quantity of fresh culture media for introduction into a 384-well plate. Following incubation for 24 hours at 37° C. the culture media is replaced with a medium containing Fluo-4 and the detergent pluronic acid, and a further incubation takes place. Concentrations of compounds are then added to the plate in order to construct concentration-effect curves. This may be performed on the FLIPR in order to assess the agonist properties of the compounds. Concentrations of PGE2 are then added to the plate in order to assess the antagonist properties of the compounds.
(§4) The data so generated may be analysed by means of a computerised curve-fitting routine. The concentration of compound that elicits a half-maximal inhibition of the calcium mobilisation induced by PGE2 (pIC50) may then be estimated.

TP receptor = biological target: T2, TP receptor (Homo sapiens, UniProt P21731); assay: human TP calcium mobilisation assay (CHO-K1 cells, U46619, FLIPR); details: free bases or sodium salts; read-out: functional pKi, human TP calcium mobilisation assay (converted)
T2 construct: expressed in transfected cells; host or cells: CHO-K1
T2 sequence (P21731 1-343): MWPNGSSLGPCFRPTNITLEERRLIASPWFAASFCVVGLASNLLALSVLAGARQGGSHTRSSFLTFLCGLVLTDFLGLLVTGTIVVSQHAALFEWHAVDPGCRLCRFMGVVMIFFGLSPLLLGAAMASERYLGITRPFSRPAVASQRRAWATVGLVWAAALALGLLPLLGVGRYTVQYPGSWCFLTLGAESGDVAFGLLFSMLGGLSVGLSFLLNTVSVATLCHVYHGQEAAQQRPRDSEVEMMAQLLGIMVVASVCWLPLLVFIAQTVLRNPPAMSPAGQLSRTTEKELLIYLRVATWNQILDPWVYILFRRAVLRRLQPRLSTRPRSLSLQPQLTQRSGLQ
Protocol: as §1, with “To determine if a compound has agonist or antagonist activity at the TP receptor a functional calcium mobilisation assay may be performed. Briefly,” for “Briefly,”, “TP” for “EP1 or EP3”, “stable TXA2 mimetic U46619 (9,11-dideoxy-11α,9α-epoxy-methanoprostaglandin F2 α; commercially available from e.g Sigma-Aldrich).” for “natural agonist hormone prostaglandin E2 (PGE2).”, “U46619” for “PGE2”, “curve.” for “curve to higher concentrations of PGE2.”, “software. The agonist activity of the compounds are determined by their ability to cause an increase in intracellular mobilisation in the absence of U46619.” for “software.”
as §2, with “TP” for “EP1 or EP3”, “assay” for “assay (hereafter referred to as ‘the calcium assay’)”, “TP” for “either EP1 or EP3”, “μg/ml” for “µg/ml”
as §3, with “96-well” for “384-well”, “U46619” for “PGE2”
The data so generated may be analysed by means of a computerised curve-fitting routine. The concentration of compound that elicits a half-maximal inhibition of the calcium mobilisation induced by U46619 (plC50) may then be estimated, and the percentage activation caused by the compounds directly can be used to determine if there is any agonism present.

EP3 receptors = biological target: T3, EP3 receptors (Homo sapiens, UniProt P43115); assay: human EP3 calcium mobilisation assay (CHO-K1 cells, PGE2, FLIPR); details: free bases or sodium salts; averages of a number of experiments; read-out: functional pKi value, human EP3 calcium mobilisation assay (converted)
T3 construct: expressed in transfected cells; host or cells: CHO-K1
T3 sequence (P43115 1-390): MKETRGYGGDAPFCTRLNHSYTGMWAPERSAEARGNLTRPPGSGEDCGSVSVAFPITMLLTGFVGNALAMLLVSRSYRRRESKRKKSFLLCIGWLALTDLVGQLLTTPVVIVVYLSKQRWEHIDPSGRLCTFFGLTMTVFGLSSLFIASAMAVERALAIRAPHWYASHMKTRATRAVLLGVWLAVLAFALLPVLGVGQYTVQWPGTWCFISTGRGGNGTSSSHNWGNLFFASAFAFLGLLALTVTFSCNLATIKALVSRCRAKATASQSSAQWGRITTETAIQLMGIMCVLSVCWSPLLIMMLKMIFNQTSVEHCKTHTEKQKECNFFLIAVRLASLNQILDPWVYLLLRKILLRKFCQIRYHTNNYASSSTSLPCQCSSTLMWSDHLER
Protocol: as §1, §2, §3, §4

Ki (EP1 receptors)	Ki (TP receptor)	Ki (EP3 receptors)	SMILES
< 1000 nM	> 1000 nM	> 10000 nM	CC(C)COc1ccc(Cl)cc1Cc1cccc(C(=O)O)n1 [Example 15, Sodium 6-({5-chloro-2-[(2-methylpropyl)oxy]phenyl}methyl)-2-pyridinecarboxylate]
< 1000 nM	< 1000 nM	–	O=C(O)c1cccc(Cc2cc(Cl)ccc2OCc2c(F)cc(F)cc2F)n1 [Example 6, Sodium 6-[(5-chloro-2-{[(2,4,6-trifluorophenyl)methyl]oxy}phenyl)methyl]-2-pyridinecarboxylate]
< 1000 nM	–	> 10000 nM	O=C(O)c1cccc(Cc2cc(Cl)ccc2OC2CCCC2)n1 [Example 19, Sodium 6-{[5-chloro-2-(cyclopentyloxy)phenyl]methyl}-2-pyridinecarboxylate]
< 1000 nM	–	–	CCC(CC)COc1ccc(Cl)cc1Cc1cccc(C(=O)O)n1 [Example 20, Sodium 6-({5-chloro-2-[(2-ethylbutyl)oxy]phenyl}methyl)-2-pyridinecarboxylate]
> 1000 nM	–	> 10000 nM	Cc1ccc(Cc2cc(Cl)ccc2OCc2ccc(Cl)cc2F)nc1C(=O)O [Example 40, 6-[(5-Chloro-2-{[(4-chloro-2-fluorophenyl)methyl]oxy}-phenyl)methyl]-3-methyl-2-pyridinecarboxylic acid, sodium salt]
–	> 1000 nM	–	O=C(O)c1cccc(Cc2cc(Cl)ccc2OCc2ccccc2)n1 [Example 1, 6-({5-Chloro-2-[(phenylmethyl)oxy]phenyl}methyl)-2-pyridinecarboxylic acid]
> 1000 nM	–	> 10000 nM	COc1ccc(S(=O)(=O)NC(=O)c2cccc(Cc3cc(Cl)ccc3OCc3ccc(Cl)cc3F)n2)cc1 [Example 32, 6-[(5-Chloro-2-{[(4-chloro-2-fluorophenyl)methyl]oxy}-phenyl)methyl]-N-{[4-methoxyphenyl]suiphonyl}-2-pyridine-carboxamide]
< 1000 nM	–	> 10000 nM	CC(=O)Nc1ccc(S(=O)(=O)NC(=O)c2cccc(Cc3cc(Cl)ccc3OCc3ccc(Cl)cc3F)n2)cc1 [Example 35, N-{[4-(Acetylamino)phenyl]-sulphonyl}-6-[(5-chloro-2-{[(4-chloro-2-fluorophenyl)methyl]-oxy}phenyl)methyl]-2-pyridine-carboxamide]
≤ 31.6 nM	–	> 10000 nM	C=C(C)COc1ccc(Cl)cc1Cc1cccc(C(=O)O)n1 [Example 2, 6-({5-Chloro-2-[(2-methyl-2-propen-1-yl)oxy]phenyl}methyl)-2-pyridinecarboxylic acid]
< 1000 nM	< 1000 nM	> 10000 nM	O=C(O)c1cccc(Cc2cc(Cl)ccc2OCc2ccc(Cl)cc2)n1 [Example 9, Sodium 6-[(5-chloro-2-{[(4-chlororophenyl)methyl]oxy}phenyl)methyl]-2-pyridinecarboxylate]
> 1000 nM	–	> 10000 nM	O=C(NS(=O)(=O)c1cc(Cl)cc(Cl)c1)c1cccc(Cc2cc(Cl)ccc2OCc2ccc(Cl)cc2F)n1 [Example 31]
< 1000 nM	< 1000 nM	–	O=C(O)c1cccc(Cc2cc(Cl)ccc2OCc2ccc(F)c(F)c2F)n1 [Example 7, Sodium 6-[(5-chloro-2-{[(2,3,4-trifluorophenyl)methyl]oxy}phenyl)methyl]-2-pyridinecarboxylate]
< 1000 nM	–	> 10000 nM	CC(C)Oc1ccc(Cl)cc1Cc1cccc(C(=O)O)n1 [Example 16, Sodium 6-({5-chloro-2-[(1-methylethyl)oxy]phenyl}methyl)-2-pyridinecarboxylate]
≤ 31.6 nM	–	–	O=C(O)c1cc(Cl)cc(Cc2cc(Cl)ccc2OCc2ccc(Cl)cc2F)n1 [Example 37, 4-Chloro-6-[(5-chloro-2-{[(4-chloro-2-fluorophenyl)-methyl]oxy}phenyl)methyl]-2-pyridinecarboxylic acid, sodium salt]
≤ 31.6 nM	> 1000 nM	–	O=C(O)c1cccc(Cc2cc(Cl)ccc2OCc2ccccc2Cl)n1 [Example 13, Sodium 6-[(5-chloro-2-{[(2-chlorophenyl)methyl]oxy}phenyl)methyl]-2-pyridinecarboxylate]
< 1000 nM	–	> 10000 nM	O=C(O)c1cccc(Cc2cc(Cl)ccc2OCC2CC2)n1 [Example 17, Sodium 6-({5-chloro-2-[(cyclopropylmethyl)oxy]phenyl}methyl)-2-pyridinecarboxylate]
≤ 31.6 nM	–	–	O=C(O)c1cccc(Cc2cc(Cl)ccc2OCC2CCCCC2)n1 [Example 18, Sodium 6-({5-chloro-2-[(cyclohexylmethyl)oxy]phenyl}methyl)-2-pyridinecarboxylate]
< 1000 nM	< 1000 nM	–	O=C(O)c1cccc(Cc2cc(Cl)ccc2OCc2ccc(F)cc2)n1 [Example 5, sodium 6-[(5-chloro-2-{[(4-fluorophenyl)methyl]oxy}phenyl)methyl]-2-pyridinecarboxylate]
